Measurements: US4647586A, “Pharmaceutical oil-in-water type micro-emulsion” (priority 1984, dated 1987)

System: Carrageenin-induced paw edema
Experiment: Carrageenin-induced paw edema in rats [Test 1]
Format: in vivo, Wistar strain male rats
Protocol: A-1: Effect of inhibiting carrageenin-induced paw edema
(a) Experimental animals: Wistar strain male rats (body weight 160-220 g), 7 per group.
As a control drug, an aqueous solution of sodium 4-biphenylylacetate was used.
The volume of the left hind paw of each rat was measured with a plethysmometer (supplied by Ugo Basile Company). A 1% carrageenin solution as an inflammation inducer was injected subcutaneously into the left hind paw of each rat to induce paw edema. The volume of the paw of the rat was measured before the administration of carrageenin and every hour after the administration up to 6 hours. […] The test drugs were intravenously administered 2 hours after the injection of carrageenin. The edema inhibition rate were calculated by the following equation. [formula]
Ec: the volume of edema of the control group to which only the solvent was administered at each time (average value)
Et: the volume of edema in the drug-administered group at each time (average value)

Question: `O=C([O-])Cc1ccc(-c2ccccc2)cc1.[Na+]` was tested. Which “Edema inhibitory effect (inhibition rate, %)” value (2.5 mg/kg i.v. as 4-biphenylylacetic acid, 2 hours after carrageenin (time of dosing)) did it give?
Answer: 0%

Question: And the “Edema inhibitory effect (inhibition rate, %)” value (2.5 mg/kg i.v. as 4-biphenylylacetic acid, 3 hours after carrageenin)?
Answer: 8.4%

Question: And the “Edema inhibitory effect (inhibition rate, %)” value (2.5 mg/kg i.v. as 4-biphenylylacetic acid, 4 hours after carrageenin)?
Answer: 13.2%

Question: And the “Edema inhibitory effect (inhibition rate, %)” value (2.5 mg/kg i.v. as 4-biphenylylacetic acid, 5 hours after carrageenin)?
Answer: 17.1%

Question: What about the “Edema inhibitory effect (inhibition rate, %)” value (2.5 mg/kg i.v. as 4-biphenylylacetic acid, 6 hours after carrageenin) of the same compound?
Answer: 19.8%

Question: And the “Edema inhibitory effect (inhibition rate, %)” value (5.0 mg/kg i.v. as 4-biphenylylacetic acid, 2 hours after carrageenin (time of dosing))?
Answer: 0%

Question: And the “Edema inhibitory effect (inhibition rate, %)” value (5.0 mg/kg i.v. as 4-biphenylylacetic acid, 3 hours after carrageenin)?
Answer: 9.5%

Question: What about the “Edema inhibitory effect (inhibition rate, %)” value (5.0 mg/kg i.v. as 4-biphenylylacetic acid, 4 hours after carrageenin) of the same compound?
Answer: 15.1%

Question: What about the “Edema inhibitory effect (inhibition rate, %)” value (5.0 mg/kg i.v. as 4-biphenylylacetic acid, 5 hours after carrageenin) of the same compound?
Answer: 17.4%

Question: And the “Edema inhibitory effect (inhibition rate, %)” value (5.0 mg/kg i.v. as 4-biphenylylacetic acid, 6 hours after carrageenin)?
Answer: 20.8%

Question: And the ED20 (Rattus norvegicus, iv, 2 h, read-out: ED20 (20% edema inhibitory effect))?
Answer: 8.5 mg/kg

Question: What about the “Edema inhibitive effect versus the micro-emulsions” value (i.v.) of the same compound?
Answer: less effect
